In US8952150B2, “Prostaglandin transporter inhibitors and uses thereof” (Albert Einstein College of Medicine of Yeshiva University, priority 2009, dated 2015):

Target: rat PGT (Rattus norvegicus (Rat), UniProt Q00910)
Test: [3H]PGE2 uptake inhibition in MDCK cells stably transfected with rat PGT (percent inhibition and IC50)
Assay type: cell-based
Conditions: for Inh (% of Ctl) 0.1 μM: 0.1 μM compound; for Inh (% of Ctl) 0.1 μM / Inh (% of Ctl) 0.5 μM / Inh (% of Ctl) 2.5 μM / Inh (% of Ctl) 5 μM / Inh (% of Ctl) 1 μM / Inh (% of Ctl) 10 μM: inhibition of [3H]PGE2 uptake; for Inh (% of Ctl) 0.5 μM: 0.5 μM compound; for Inh (% of Ctl) 2.5 μM: 2.5 μM compound; for Inh (% of Ctl) 5 μM: 5 μM compound; for IC50: [3H]PGE2 uptake, MDCK cells stably transfected with rat PGT; for Inh (% of Ctl) 1 μM: 1 μM compound; for Inh (% of Ctl) 10 μM: 10 μM compound
Procedure, shortened: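 Rat PGT-transfected MDCK cells, on day 4 after seeding, took up [3H]PGE2 in Waymouth buffer at room temperature, with compound (EtOH stock diluted in buffer) added immediately before tracer. Intracellular radioactivity counted after lysis; percent inhibition versus vehicle, IC50 by fitting y=m1−m1*(m0/(m2+m0)).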

| SMILES | Inh (% of Ctl) 0.1 μM | Inh (% of Ctl) 0.5 μM | Inh (% of Ctl) 2.5 μM | Inh (% of Ctl) 5 μM | IC50 [nM] | Inh (% of Ctl) 1 μM | Inh (% of Ctl) 10 μM |
| --- | --- | --- | --- | --- | --- | --- | --- |
| O=C(NCCOCCOCCNc1nc(Nc2ccc(O)cc2)nc(Nc2ccc(N3CCOCC3)cc2)n1)c1ccccc1 [compound 24] |  | 1.7 % of Ctl |  | 9.2 % of Ctl |  |  |  |
| COCCOCCOCCNC(=O)c1ccc(Nc2nc(NCCOCCOCCNC(=O)c3ccccc3)nc(Nc3ccc(O)cc3)n2)cc1 [compound 19] |  | 41.3 % of Ctl |  | 75.0 % of Ctl |  |  |  |
| COC(=O)COCCOCCNC(=O)c1ccc(Nc2nc(NCCOCCOCCNC(=O)c3ccccc3)nc(Nc3ccc(O)cc3)n2)cc1 [compound 47] |  |  |  |  |  | 22.6 % of Ctl | 76.5 % of Ctl |
| CN(C)c1nc(NCCOCCOCCNC(=O)c2ccccc2)nc(Nc2ccc(OCc3ccccc3)cc2)n1 [compound 5] |  | 6.6 % of Ctl |  | 9.6 % of Ctl |  |  |  |
| NS(=O)(=O)c1ccc(Nc2nc(NCCOCCOCCNC(=O)c3ccccc3)nc(Nc3ccc(O)cc3)n2)cc1 [compound 46] |  |  |  |  |  | 4.1 % of Ctl | 32.4 % of Ctl |
| O=C(NCCOCCOCCNc1nc(Nc2ccc(O)cc2)nc(Nc2ccc(O)cc2)n1)c1ccccc1 [compound 28] |  | 2.4 % of Ctl |  | 56.5 % of Ctl |  |  |  |
| O=C(NCCOCCOCCNc1nc(Nc2ccccc2)nc(Nc2ccc(O)cc2)n1)Nc1ccccc1 [compound 42] |  |  |  |  |  | 22.8 % of Ctl | 57.6 % of Ctl |
| O=C(O)c1ccc(Nc2nc(NCCOCCOCCNC(=O)c3ccccc3)nc(Nc3ccc(O)cc3)n2)cc1 [compound 13] |  | 19.2 % of Ctl |  | 19.3 % of Ctl |  |  |  |
| CCCCCCNc1nc(Nc2ccccc2)nc(Nc2ccc(O)cc2)n1 [compound 55] |  |  |  |  |  | 12.7 % of Ctl | 26.1 % of Ctl |
| COCCOCCOCCNc1nc(NCCOCCOCCNC(=O)c2ccccc2)nc(Nc2ccc(O)cc2)n1 [compound 11] |  | 11.4 % of Ctl |  | 29.9 % of Ctl |  |  |  |
| O=C(NCCOCCOCCNc1nc(NCCO)nc(Nc2ccc(O)cc2)n1)c1ccccc1 [compound 10] |  | 1.4 % of Ctl |  | 15.0 % of Ctl |  |  |  |
| CCCCCCNC(=O)c1ccc(Nc2nc(NCCOCCOCCNC(=O)c3ccccc3)nc(Nc3ccc(O)cc3)n2)cc1 [compound 44] |  |  |  |  | 760 | 65.0 % of Ctl | 77.5 % of Ctl |
| O=C(NCCOCCOCCNc1nc(Nc2ccccc2)nc(Nc2ccc(O)cc2)n1)c1cccs1 [compound 39] |  |  |  |  |  | 42.9 % of Ctl | 86.2 % of Ctl |
| O=C(NCCOCCOCCNc1nc(Nc2ccccc2)nc(Nc2ccc(O)cc2)n1)c1cccnc1 [compound 33] |  |  |  |  |  | 13.2 % of Ctl | 54.6 % of Ctl |
| O=C(O)CCCCCCNc1nc(Nc2ccccc2)nc(Nc2ccc(O)cc2)n1 [compound 52] |  |  |  |  |  | 0.1 % of Ctl | 1.8 % of Ctl |
| O=C(NCCOCCOCCNc1nc(Nc2ccccc2)nc(Nc2ccc(O)cc2)n1)c1cccc(F)c1 [compound 34] |  |  |  |  |  | 25.8 % of Ctl | 81 % of Ctl |
| COCCOCCOCCNc1nc(NCCOCCOCCNC(=O)c2ccccc2)nc(Nc2ccc(OCc3ccccc3)cc2)n1 [compound 7] |  | 4.8 % of Ctl |  | 22.5 % of Ctl |  |  |  |
| O=C(O)CCCCCCNC(=O)c1ccc(Nc2nc(NCCOCCOCCNC(=O)c3ccccc3)nc(Nc3ccc(O)cc3)n2)cc1 [compound 48] |  |  |  |  |  | 14.2 % of Ctl | 62.8 % of Ctl |
| COC(=O)c1ccc(Nc2nc(NCCOCCOCCNC(=O)c3ccccc3)nc(Nc3ccccc3)n2)cc1 [compound 61] |  |  |  |  |  | 7.5 % of Ctl | 46.1 % of Ctl |
| O=S(=O)(NCCOCCOCCNc1nc(Nc2ccccc2)nc(Nc2ccc(O)cc2)n1)c1ccccc1 [compound 38] |  |  |  |  |  | 22.8 % of Ctl | 63.0 % of Ctl |

Further lines, results first:

| Inh (% of Ctl) 0.1 μM | Inh (% of Ctl) 0.5 μM | Inh (% of Ctl) 2.5 μM | Inh (% of Ctl) 5 μM | IC50 [nM] | Inh (% of Ctl) 1 μM | Inh (% of Ctl) 10 μM | SMILES |
| --- | --- | --- | --- | --- | --- | --- | --- |
| 61.8 % of Ctl | 67.6 % of Ctl | 82.6 % of Ctl | 88.2 % of Ctl | 820 |  |  | COc1cccc(CNC(=O)c2ccc(Nc3nc(NCCOCCOCCNC(=O)c4ccccc4)nc(Nc4ccc(O)cc4)n3)cc2)c1 [compound 88] |
| 4.2 % of Ctl | 14.3 % of Ctl |  |  |  | 23.9 % of Ctl |  | O=C(O)c1cccc(Nc2nc(NCCOCCOCCNC(=O)c3ccccc3)nc(Nc3ccc(C(=O)NCc4ccc(F)cc4)cc3)n2)c1 [compound 150] |
| 57.2 % of Ctl | 81.4 % of Ctl |  |  |  |  |  | CCCCCCNC(=O)c1ccc(Nc2nc(NCCOCCNC(=O)c3ccccc3)nc(Nc3ccc(O)cc3)n2)cc1 [compound 119] |
|  |  |  |  |  | 11.0 % of Ctl | 44.1 % of Ctl | O=C(NCCCCCCCNc1nc(Nc2ccccc2)nc(Nc2ccc(O)cc2)n1)c1ccccc1 [compound 63] |
| 8.1 % of Ctl | 36.7 % of Ctl |  |  |  |  |  | COC(=O)c1ccc(CNc2nc(NCCOCCOCCNC(=O)c3ccccc3)nc(Nc3ccc(C(=O)NCc4ccccc4)cc3)n2)cc1 [compound 117] |
| 7.1 % of Ctl | 3.1 % of Ctl |  |  |  | 6.9 % of Ctl |  | O=C(NCc1ccc(F)cc1)c1ccc(Nc2nc(Nc3ccc(O)cc3)nc(Nc3ccc(O)cc3)n2)cc1 [compound 145] |
| 33.3 % of Ctl | 64.1 % of Ctl |  |  | 23.9 | 77.9 % of Ctl |  | O=C(NCCOCCNc1nc(Nc2ccc(O)cc2)nc(Nc2ccc(C(=O)NCc3ccccc3)cc2)n1)c1ccc(F)cc1 [compound 136] |
| 1.0 % of Ctl | 28.8 % of Ctl |  |  |  |  |  | O=C(O)c1ccc(CNc2nc(NCCOCCOCCNC(=O)c3ccccc3)nc(Nc3ccc(C(=O)NCc4ccccc4)cc3)n2)cc1 [compound 121] |
|  | 15.5 % of Ctl |  | 77.2 % of Ctl | 115 | 71.6 % of Ctl | 90.2 % of Ctl | O=C(NCCOCCOCCNc1nc(Nc2ccc(C(=O)NCc3ccccc3)cc2)nc(Nc2ccc3[nH]ncc3c2)n1)c1ccccc1 [compound 64] |
|  | 41.9 % of Ctl | 65.7 % of Ctl | 88.0 % of Ctl |  |  |  | Cc1ccc(CNC(=O)c2ccc(Nc3nc(NCCOCCOCCNC(=O)c4ccccc4)nc(Nc4ccc(O)cc4)n3)cc2)cc1 [compound 102] |
|  |  |  |  |  | 20.4 % of Ctl | 50.1 % of Ctl | O=C(NCCCCCCNc1nc(Nc2ccccc2)nc(Nc2ccc(O)cc2)n1)c1ccccc1 [compound 62] |
|  | 24.6 % of Ctl | 43.3 % of Ctl | 51.1 % of Ctl |  |  |  | O=C(NCCOCCOCCNc1nc(Nc2ccc(O)cc2)nc(Nc2ccc(C(=O)NCc3ccc(-c4ccccc4)cc3)cc2)n1)c1ccccc1 [compound 93] |
|  | 17.5 % of Ctl | 32.2 % of Ctl | 49.4 % of Ctl |  |  |  | O=C(O)c1ccc(CNC(=O)c2ccc(Nc3nc(NCCOCCOCCNC(=O)c4ccccc4)nc(Nc4ccc(O)cc4)n3)cc2)cc1 [compound 112] |
|  | 10.9 % of Ctl |  | 64.4 % of Ctl |  |  |  | CC(C)(NC(=O)c1ccc(Nc2nc(NCCOCCOCCNC(=O)c3ccccc3)nc(Nc3ccc(O)cc3)n2)cc1)c1ccccc1 [compound 66] |
| 60.8 % of Ctl | 72.1 % of Ctl | 84.0 % of Ctl | 88.0 % of Ctl | 620 |  |  | O=C(NCCOCCOCCNc1nc(Nc2ccc(O)cc2)nc(Nc2ccc(C(=O)NCc3ccc(Cl)cc3)cc2)n1)c1ccccc1 [compound 91] |
| 14.0 % of Ctl | 27.7 % of Ctl |  |  |  | 46.7 % of Ctl |  | O=C(NCc1ccccc1)c1ccc(Nc2nc(NCCOCCNC(=O)c3ccccc3C(F)(F)F)nc(Nc3ccc(O)cc3)n2)cc1 [compound 134] |
| 3.2 % of Ctl | 24.3 % of Ctl |  |  |  |  |  | O=C(O)Cc1ccc(Nc2nc(NCCOCCOCCNC(=O)c3ccccc3)nc(Nc3ccc(C(=O)NCc4ccccc4)cc3)n2)cc1 [compound 125] |
| 46.6 % of Ctl | 61.6 % of Ctl | 87.8 % of Ctl | 91.6 % of Ctl |  |  |  | O=C(NCCOCCOCCNc1nc(Nc2ccc(O)cc2)nc(Nc2ccc(C(=O)NCc3ccc(Cl)c(Cl)c3)cc2)n1)c1ccccc1 [compound 104] |
| 33.7 % of Ctl | 57.8 % of Ctl |  |  | 16.5 | 69.5 % of Ctl |  | O=C(NCCOCCOCCNc1nc(Nc2ccc(C(=O)NCc3ccc(F)cc3)cc2)nc(Nc2ccc(O)c(F)c2)n1)c1ccccc1 [compound 143] |
|  | 5.4 % of Ctl | 29.2 % of Ctl | 54.9 % of Ctl |  |  |  | O=C(NCCOCCOCCNc1nc(Nc2ccc(O)cc2)nc(Nc2ccc(C(=O)N[C@@H](C(=O)O)c3ccccc3)cc2)n1)c1ccccc1 [compound 79] |
| 24.0 % of Ctl | 56.3 % of Ctl |  |  |  | 70.0 % of Ctl |  | O=C(NCCOCCOCCNc1nc(Nc2ccc(O)cc2)nc(Nc2ccc(C(=O)NCc3cccc(F)c3F)cc2)n1)c1ccccc1 [compound 126] |
| 68.8 % of Ctl | 85.4 % of Ctl |  |  | 34 |  |  | CN(c1ccc(C(=O)NCc2ccccc2)cc1)c1nc(NCCOCCOCCNC(=O)c2ccccc2)nc(Nc2ccc(O)cc2)n1 [compound 124] |
